According to PubChem BioAssay (NCI):
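Test compounds were applied to cells in 96-well plates for 48 hours at 5 doses. GI50 marks 50% less growth. TGI: concentration producing complete growth inhibition.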

Legend:
Test in all cases: DTP human tumour cell line panel, 48 h
[1] = tested on: HOP-62 NSCLC
[2] = tested on: ACHN renal
[3] = tested on: A498 renal
[4] = tested on: HT29 colon
[5] = tested on: NCI-H23 lung
[6] = tested on: HOP-92 NSCLC
[7] = tested on: UACC-62 melanoma
[8] = tested on: SK-MEL-2 melanoma

Structure (SMILES) | TGI [1] | TGI [2] | TGI [3] | TGI [4] | TGI [5] | TGI [6] | TGI [7] | TGI [8] | GI50 [2] | GI50 [3] | GI50 [5] | GI50 [6] | GI50 [7] | GI50 [8]
S=C(S)NCNC(=S)S.[Zn+2] | > 100 µM | > 100 µM | > 100 µM | > 100 µM | > 100 µM | > 100 µM | > 100 µM | – | – | – | – | – | – | –
CCOC(=O)C12OC(CCC1=O)C(C(=O)OC)=C2C(=O)OC (configuration not stated) | > 10 µM | > 10 µM | > 10 µM | > 10 µM | > 10 µM | – | > 10 µM | > 10 µM | – | – | – | – | – | –
O=c1c(/C=C/c2c(O)ccc3ccccc23)nnc2sc(-c3cccc(Br)c3)nn12 | > 100 µM | > 100 µM | > 100 µM | 82.1 µM | 40.3 µM | – | 68.6 µM | > 100 µM | – | – | – | – | – | –
Fc1cc(-c2cc(-c3ccccc3)no2)c(Cl)cc1Cl | > 54.8 µM | > 59.6 µM | > 54 µM | > 46.7 µM | > 34.2 µM | 35.7 µM | > 100 µM | > 40.1 µM | – | – | – | – | – | –
O=C(Cn1c[n+](CC(=O)c2ccc(-c3ccccc3)cc2)c2ccccc21)Nc1cccc2cccnc12 | – | 10.7 µM | 4.84 µM | – | 3.02 µM | 2.18 µM | 2.84 µM | – | 3.06 µM | 1.04 µM | 1.52 µM | 0.677 µM | 1.4 µM | –
COC(=O)c1ccccc1/C=C1\Cc2ccc(C)c(C)c2C1=O | > 100 µM | > 100 µM | > 100 µM | > 100 µM | > 100 µM | 92.5 µM | > 100 µM | > 100 µM | – | – | – | – | – | –
NNC(=O)c1n[nH]nc1C(=O)NN | > 100 µM | – | – | 26.3 µM | > 100 µM | – | – | > 100 µM | – | – | – | – | – | –
CC(C)C(=O)OCC1OC(n2c(Br)nc3c(=O)[nH]c(N)nc32)C(OC(=O)C(C)C)C1OC(=O)C(C)C (configuration not stated) | > 100 µM | > 100 µM | – | 40.3 µM | – | > 100 µM | > 100 µM | > 100 µM | – | – | – | – | – | –
CCOC1OC(=O)c2cc3ccc4c(c3c(-c3ccc5c(c3)OCO5)c21)OCO4 (configuration not stated) | > 100 µM | > 100 µM | > 100 µM | > 100 µM | > 55.3 µM | > 100 µM | > 59.2 µM | > 100 µM | – | – | – | – | – | –
COc1ccc(S(=O)(=O)c2nnc(S(=O)(=O)Cc3ccccc3)s2)cc1 | 75.5 µM | 30.6 µM | 39.9 µM | 43.8 µM | 62.3 µM | – | – | 45.1 µM | – | – | – | – | – | –
C[C@H](CCC(=O)O)[C@H]1CC[C@H]2[C@@H]3CC[C@@H]4C[C@H](O)CC[C@]4(C)[C@H]3C[C@H](O)[C@]12C | 78.6 µM | > 100 µM | > 100 µM | > 100 µM | > 100 µM | – | > 100 µM | > 100 µM | – | – | – | – | – | –
O=C(O)C(NCc1ccccc1)C(NCc1ccccc1)C(=O)O (configuration not stated) | > 100 µM | > 100 µM | > 100 µM | > 100 µM | > 100 µM | > 100 µM | > 100 µM | > 100 µM | – | – | – | – | – | –
Cc1nc2c(nc1C)-c1[nH]c3c(c1C(=O)C2=O)CCCC3=O | 6.76 µM | 7.35 µM | 21.5 µM | 16.2 µM | 5.63 µM | 3.66 µM | 3.25 µM | 3.29 µM | – | – | – | – | – | –
Cc1ccc(-n2c(N)c(C#N)c3[nH]nc(N)c3c2=O)cc1 | > 100 µM | > 100 µM | > 100 µM | > 100 µM | > 100 µM | > 100 µM | > 100 µM | > 100 µM | – | – | – | – | – | –
CC(=O)Oc1ccc2c(C)cc(=O)oc2c1OC(C)=O | > 100 µM | > 100 µM | 76.5 µM | > 100 µM | > 100 µM | – | > 100 µM | > 100 µM | – | – | – | – | – | –
CC1CCC(=O)C(C(=O)CC2CC(=O)N(C)C(=O)C2)C1 (configuration not stated) | > 100 µM | > 100 µM | > 100 µM | > 100 µM | > 100 µM | > 100 µM | > 100 µM | > 100 µM | – | – | – | – | – | –
CC#CCOC(=O)c1ccccc1OC(C)=O | > 100 µM | > 100 µM | > 100 µM | – | > 100 µM | > 100 µM | > 100 µM | > 100 µM | – | – | – | – | – | –
O=C(Nc1nc(C23CC4CC(CC(C4)C2)C3)cs1)c1cc2ccc(O)cc2oc1=O | 36.8 µM | 64.3 µM | 28.6 µM | 27.4 µM | 38.4 µM | 15.3 µM | – | – | – | – | – | – | – | –
COc1ccc(-[n+]2nc(S(=O)(=O)O)c(/C=C/c3ccc(N(C)C)cc3)cc2C#N)cc1 | > 100 µM | > 100 µM | > 100 µM | > 100 µM | > 100 µM | > 100 µM | > 100 µM | > 100 µM | – | – | – | – | – | –
CCC(C)OC(=O)/C(Br)=C1/OC(=O)c2ccccc2-c2ccccc21 (configuration not stated) | 35.1 µM | > 100 µM | > 100 µM | 84.5 µM | > 100 µM | 81.9 µM | 57.5 µM | > 100 µM | – | – | – | – | – | –
CCCCCCOC(=O)/C=C/[C@]1(CO)C/C(=C/CC(C(C)C)C(C)C)C(=O)O1 | 27.6 µM | 20.7 µM | 20.6 µM | 20.8 µM | 25 µM | 25.4 µM | 27.3 µM | 30.7 µM | – | – | – | – | – | –
C=C(C)[C@@H]1CC[C@]2(C(=O)NC3CCCCC3)CC[C@]3(C)[C@H](CC[C@@H]4[C@@]5(C)CCCNC(C)(C)[C@@H]5CC[C@]43C)[C@@H]12 | – | – | 28.8 µM | – | – | 3.15 µM | – | 3.72 µM | – | 14.3 µM | – | 1.55 µM | – | 1.91 µM
O=c1cc(-c2cccc3ccccc23)[nH]c2ncccc12 | > 100 µM | > 100 µM | – | 0.0608 µM | > 100 µM | 70.1 µM | > 100 µM | > 100 µM | 0.0425 µM | – | – | 0.773 µM | – | 0.0136 µM
Nc1ncnc2c1ncn2[C@@H]1C[C@@H]1CO | > 100 µM | > 100 µM | > 100 µM | > 100 µM | > 100 µM | – | – | > 100 µM | – | – | – | – | – | –
CCOC(=O)NC(Nc1ccc(S(=O)(=O)Nc2nc(C)cc(C)n2)cc1)(C(=O)OCC)C(F)(F)F (configuration not stated) | > 100 µM | > 100 µM | > 100 µM | > 100 µM | > 100 µM | > 100 µM | > 100 µM | > 100 µM | – | – | – | – | – | –
CN(CC(=O)O)c1ncc2c(n1)CCCC2 | > 100 µM | > 100 µM | > 100 µM | > 100 µM | > 100 µM | > 100 µM | > 100 µM | > 100 µM | – | – | – | – | – | –
